Experiments:
[1] = test system: Frizzled homolog 1 (FZD1); assay: FZD1 expression in keratinocytes by Q-RT-PCR; type: cell-based; conditions: human neonatal keratinocyte cells, 10 μM, 24 hours, FIG. 3
Method: (§1) Human neonatal keratinocyte cells purchased from Welskin Co (Seoul, Korea) were subcultured in a 25 cm^2 T-flask and incubated in a CO2 incubator under conditions of 37° C. and 5% CO2. Generally, the experiment was carried out after the cells have been subcultured for 2-3 passages. According to the method of Lonza, Inc. (Walkersville, Md., USA), the medium used in the cell culture was prepared by adding a KGM-2 bullet kit (bovine pituitary extract (2 mg), human epidermal growth factor (0.5 ml), insulin (0.5 ml), hydrocortisone (0.5 mg), transferrin (0.5 mg), epinephrine (0.5 mg), and gentamicin sulfate+amphotericin-B (GA-1000, 0.5 ml)) to 500 ml of KBM-2 medium (Clonetics CC-3103). When a confluence of about 50% was shown 2 days after the subculture of the cells, the serum was starved. After 24 hours, the cells were treated with 10 μM of each of a negative control, an Angelica gigas Nakai extract (positive control), daidzein and Examples 1-6 for 24 hours. […]
(§2) Then, RNA of the cells was isolated using Trizol reagent (Invitrogen, Carlsbad, Calif., USA). The isolated RNA was purified with Qiagen RNeasy kit (Qiagen, Valencia, Calif.), and then the quality of the RNA was confirmed using the Agilent 2100 Bio-Analyzer (Agilent Technologies, Santa Clara, Calif., USA). cDNA was synthesized from the RNA using a superscript reverse transcriptase (RT) kit (Invitrogen, Carlsbad, Calif.) and was quantitatively analyzed through a real time-reverse transcription polymerase chain reaction (Q-RT-PCR). The changes in the expression patterns of genes in the keratinocyte cells were analyzed using the TaqMan®gene expression assay kit (Applied Biosystems, Foster City, Calif.), Dickkopf homolog 3 (DKK3)-HS00247426_m1, and Frizzled homolog 1 (FZD1)-HS00268943_s1 (TagMan primer catalog name), thus confirming the expression levels of DKK3 and FZD1.

[2] = test system: Dickkopf homolog 3 (DKK3); assay: DKK3 expression in keratinocytes by Q-RT-PCR; type: cell-based; conditions: human neonatal keratinocyte cells, 10 μM, 24 hours, FIG. 2
Method: as §1, §2

[3] = test system: TNF-alpha; assay: Anti-inflammatory effect: TNF-alpha gene expression in LPS-treated HaCaT cells; type: cell-based, human; conditions: 10 μM pretreatment 2 hours, 1 μg/ml LPS 8 hours, mRNA normalized to GAPDH, FIG. 4
Method: In this Example, human keratinocyte HaCaT cells obtained from the Korean Cell Line Bank (Seoul, Korea) were used. The HaCaT cells were seeded into a DMEM medium containing 10% (v/v) FBS, 100 U/ml penicillin and 100 μg/ml streptomycin and were incubated in an animal cell incubator under conditions of 37° C. and 5% CO2. The HaCaT cells prepared at 1.5×10^6 cells/well were adapted in FBS-free medium for 3 hours. The cells were pretreated with 10 μM of each of 4′,6,7-trihydroxyisoflavone, 3′,4′,7-trihydroxyisoflavone, daidzein and TGZ for 2 hours, 1 μg/ml of lipopolysaccharide (LPS) was added thereto, and then the cells were additionally cultured for 8 hours. Total RNA of the cells was extracted using TRIzol™ (GIBCO BRL, MD, USA) and stored at −80° C. 1 μg of the total RNA was added to 25 μl of a reverse transcription reaction buffer containing 50 mM Tris-HCl (pH 8.3), 75 mM KCl, 3 mM MgCl2, 0.1 M DTT, 10 mM dNTP and 40 U/μl RNase inhibitor. 0.5 μg/μl oligo(dT)16 primers and 200 U SuperScript per Script II reverse transcriptase (GiboBRL) were added thereto, and the total RNA was subjected to a reverse transcription reaction at 42° C. for 1 hour. Then, 2.5 μl of the reverse transcription reaction solution was added to […] of a PCR reaction buffer containing 0.04 U AmpliTaq DNA polymerase (Perkin Elmer, Shelton, Conn.), 50 mM Tris-HCl (pH 8.3), 0.25 mg/ml bovine serum albumin, 3 mM MgCl2, 0.25 mM dNTPs and a 1/50,000 dilution of SYBR green I (Molecular Probes, Eugene, Oreg.), and 10 μM primers were added thereto. Then, a PCR reaction was subjected to PCR amplification. The PCR reaction consisted of 30 cycles of denaturation at 94° C. for 30 sec, annealing at 53° C. for 30 sec and extension at 72° C. for 1 min. The relative mRNA levels were analyzed by measuring the change in fluorescence of SYBR green I using ICycler software. As an internal standard, GAPDH (glyceraldehyde 3-phosphate dehydrogenase) was used to normalize the quantitative expression level of the gene TNF-alpha.

[4] = test system: Human keratinocyte HaCaT cells; assay: Keratinocyte division inhibition, BrdU colorimetric ELISA; type: cell-based; conditions: HaCaT cells, 1, 10 and 50 μM, 48 hours, BrdU analysis, FIG. 1; for keratinocyte division-inhibiting effect: compared with daidzein
Method: Human keratinocyte HaCaT cells were added to 10% fetal bovine serum-containing DMEM medium [Dulbecco's modified Eagle's Medium; Gibco 1210-0038] and cultured in a 24-well plate at a confluence of 70%. The HaCaT cells were treated with 1, 10 and 50 μM of each of 4′,6,7-trihydroxyisoflavone and 3′,4′,7-trihydroxyisoflavone, and after 48 hours, subjected to BrdU analysis. At 12 hours before the BrdU analysis was carried out, BrdU labeling was carried out. The BrdU analysis was carried out using a BrdU colorimetric ELISA kit (Roche) according to the manufacturer's instruction. First, the culture broth was treated with BrdU solution for 12 hours, and then the medium was removed. The cells were fixed, and a peroxidase-conjugated BrdU antibody was added thereto, after which the cells were treated with a substrate solution to induce color development. The degree of color development was measured with an ELISA reader. As positive controls, calcium known to be used for the differentiation of keratinocytes, and troglitazone (TGZ) known to inhibit cell division and induce cell differentiation were used.

| Structure (SMILES) | expression level of FZD1 [1] | expression level of DKK3 [2] | expression of the TNF-alpha gene [3] | concentration dependence of inhibition of keratinocyte division [4] | keratinocyte division-inhibiting effect [4] |
| --- | --- | --- | --- | --- | --- |
| O=c1c(-c2ccc(O)cc2)coc2cc(O)ccc12 [daidzein, reference compound] | significantly lower than those in the groups treated with the ortho-dihydroxyisoflavone derivatives | significantly lower than those in the groups treated with the ortho-dihydroxyisoflavone derivatives | slightly inhibited | – | – |
| O=c1c(-c2ccc(O)c(O)c2)coc2cc(O)ccc12 [3′,4′,7-trihydroxyisoflavone] | effectively promoted the expression | effectively promoted the expression | strongly inhibited | concentration-dependent manner | significantly superior to that of daidzein |
| O=c1c(-c2ccc(O)cc2)coc2cc(O)c(O)cc12 [4′,6,7-trihydroxyisoflavone] | effectively promoted the expression | effectively promoted the expression | strongly inhibited | concentration-dependent manner | significantly superior to that of daidzein |

From patent US20110224291A1, “SKIN EXTERNAL COMPOSITION FOR INHIBITING EPIDERMAL HYPERPROLIFERATION AND ALLEVIATING INFLAMMATORY SKIN DISEASES CONTAINING ORTHODIHYDROXYISOFLAVONE DERIVATIVES” (priority 2008, published 2011)
